Patent US9682978B2, “2,6,7 substituted purines as HDM2 inhibitors” (Merck Sharp & Dohme Corp., priority 2013, dated 2017)

Target: T1, HDM2 (Homo sapiens, UniProt Q00987)
T1 construct: Thioredoxin (N); made in house; host or cells: E. coli BL21(DE3)Rosetta (pET32a)
Experiment: HDM2 FRET assay (inhibition of p53 peptide binding to HDM2)
Settings: for IC50: truncated HDM2 residues 17 to 125, 0.5 nM HDM2, 3 nM FITC labeled 8-mer peptide, two hour incubation; for inhibition at 1 µM: Table 1, printed in the FRET IC50 column, at 1000 nM compound
From the text: Methods: An HDM2 FRET assay was developed to assess the compounds' inhibitory activity towards binding of p53 protein. A truncated version of HDM2 with residues 17 to 125 (containing p53 binding surface, Science (1994) 265, 346-355), with N-terminal His and Thioredoxin tag was generated in pET32a expression vector and expressed in E. coli strain BL21(DE3)Rosetta. Protein was purified using Ni-affinity chromatography, followed by size exclusion chromatography using Superdex 75 26/60 column. To assess inhibition of p53 binding to HDM2, a FITC labeled 8-mer peptide (sequence: Ac-Phe-Arg-Dpr-Ac6c-(6-Br)Trp-Glu-Glu-Leu-NH2; Anal Biochem. 2004 Aug. 1; 331(1):138-46) with strong affinity towards p53 binding pocket of HDM2 was used. The HDM2 assay buffer contained 1× Phosphate Buffered Saline (Invitrogen, Cat#14190), 0.01% BSA (Jackson ImmunoResearch, Cat#001-000-162), 0.01% Tween-20. In the 1× assay buffer recombinant HDM2 protein, peptide and Lumi4-Tb Cryptate-conjugate mouse anti-6×HIS antibody (cisbio, Cat#Tb61HISTLB) were added and transferred to ProxiPlate PLUS (PerkinElmer, Cat#6008269), containing compounds so that final DMSO concentration is 0.1%. Final concentrations of reagents in the assay wells are 0.5 nM HDM2, 0.25 nM anti HIS (Tb label) antibody and 3 nM peptide. After two hour incubation at room temperature in a humidified chamber plates were read on EnVision plate reader with the following settings: excitation: UV, […], two emission filters: 520 nm and 495 nm respectively. Ratio of em520/em495 was used to calculate % inhibition and to obtain IC50 with 4-parameter logistic equation.
IC50 DETERMINATIONS: Dose-response curves were plotted from the inhibition data, from 10 point serial dilutions of inhibitory compounds. Concentration of compound was plotted against em520/Cem495 ratio signal. To generate IC50 values, the dose-response curves were fitted to a standard sigmoidal curve and IC50 values were derived by nonlinear regression analysis. IC50 values in the above table are rounded to the nearest integer.

T1 sequence (Q00987 17-125): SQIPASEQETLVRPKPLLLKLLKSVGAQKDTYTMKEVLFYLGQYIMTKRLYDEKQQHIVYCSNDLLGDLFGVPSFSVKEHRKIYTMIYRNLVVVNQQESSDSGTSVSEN

Row | Structure (SMILES) | IC50 (Table 3) [nM] | IC50 (Table 2) [nM] | also measured
1 | C[C@@H](Nc1nc(-c2noc(=O)[nH]2)nc2ncn(C[C@H]3CC[C@H](C)CC3)c12)C1CCC1 [Example 1.7, 3-(6-{[(1R)-1-cyclobutylethyl]amino}-7-[(trans-4-methylcyclohexyl)methyl]-7H-purin-2-yl)-1,2,4-oxadiazol-5(4H)-one] | – | – | IC50 (Table 1): 51.3 nM
2 | C[C@@H](Nc1nc(-c2noc(=O)[nH]2)nc2ncn(Cc3ccc(C(F)(F)F)cc3)c12)C1CCC1 [Example 1.14, 3-(6-{[(1R)-1-cyclobutylethyl]amino}-7-[4-(trifluoromethyl)benzyl]-7H-purin-2-yl)-1,2,4-oxadiazol-5(4H)-one] | – | – | IC50 (Table 1): 21.6 nM
3 | O=c1[nH]c(-c2nc(-c3cccc(Cl)c3)c3c(ncn3C[C@H]3CC[C@H](C(F)(F)F)CC3)n2)no1 [Example 3.2, 3-[6-(3-chlorophenyl)-7-{[trans-4-(trifluoromethyl)cyclohexyl]methyl}-7H-purin-2-yl]-1,2,4-oxadiazol-5(4H)-one] | 437 | – | –
4 | C[C@H]1CC[C@H](Cn2cnc3nc(-c4noc(=O)[nH]4)nc(-c4cc(Cl)cc(C(N)=O)c4)c32)CC1 [Example 2.13, 3-chloro-5-{7-[(trans-4-methylcyclohexyl)methyl]-2-(5-oxo-4,5-dihydro-1,2,4-oxadiazol-3-yl)-7H-purin-6-yl}benzamide] | – | 50.8 | –
5 | CCC1CCC(Cn2cnc3nc(-c4noc(=O)[nH]4)nc(N[C@H](C)C4CCC4)c32)C1 (single isomer, unassigned) [Example 3.14] | 189 | – | –
6 | CC1CCCN(c2nc(-c3noc(=O)[nH]3)nc3ncn(C[C@H]4CC[C@H](C)CC4)c23)C1 (stereo partly drawn) [Example 1.11, 3-{7-[(trans-4-methylcyclohexyl)methyl]-6-(3-methylpiperidin-1-yl)-7H-purin-2-yl}-1,2,4-oxadiazol-5(4H)-one] | – | – | inhibition at 1 µM: 43%
7 | COc1cc(Cl)cc(-c2nc(-c3noc(=O)[nH]3)nc3ncn(C[C@H]4CC[C@H](C)CC4)c23)c1 [Example 2.6, 3-{6-(3-chloro-5-methoxyphenyl)-7-[(trans-4-methylcyclohexyl)methyl]-7H-purin-2-yl}-1,2,4-oxadiazol-5(4H)-one] | – | 312 | –
8 | CC([C@H]1CC[C@H](C)CC1)n1cnc2nc(-c3noc(=O)[nH]3)nc(N[C@H](C)C3CCC3)c21 (single isomer, unassigned) [Example 3.17] | 421 | – | –
9 | CC1=C(F)CC(Cn2cnc3nc(-c4noc(=O)[nH]4)nc(N[C@H](C)C4CCC4)c32)CC1 (mixture of isomers) [Example 3.6, 3-(6-{[(1R)-1-cyclobutylethyl]amino}-7-[(3-fluoro-4-methylcyclohex-3-en-1-yl)methyl]-7H-purin-2-yl)-1,2,4-oxadiazol-5(4H)-one] | 149 | – | –
10 | C[C@H]1CC[C@H](Cn2cnc3nc(-c4noc(=O)[nH]4)nc(-c4cncc(Cl)c4)c32)CC1 [Example 2.12, 3-{6-(5-chloropyridin-3-yl)-7-[(trans-4-methylcyclohexyl)methyl]-7H-purin-2-yl}-1,2,4-oxadiazol-5(4H)-one] | – | 86 | –
11 | C=C1CCC(Cn2cnc3nc(-c4noc(=O)[nH]4)nc(N[C@H](C)C4CCC4)c32)CC1 [Example 3.7, 3-(6-{[(1R)-1-cyclobutylethyl]amino}-7-[(4-methylidenecyclohexyl)methyl]-7H-purin-2-yl)-1,2,4-oxadiazol-5(4H)-one] | 543 | – | –
12 | CNC(=O)c1cc(Cl)cc(-c2nc(-c3noc(=O)[nH]3)nc3ncn(C[C@H]4CC[C@H](C)CC4)c23)c1 [Example 2.10, 3-chloro-N-methyl-5-{7-[(trans-4-methylcyclohexyl)methyl]-2-(5-oxo-4,5-dihydro-1,2,4-oxadiazol-3-yl)-7H-purin-6-yl}benzamide] | – | 71.8 | –
13 | CCC1CCC(Cn2cnc3nc(C(=O)O)nc(N[C@H](C)C4CCC4)c32)C1 (single isomer, unassigned) [Example 3.12] | 146 | – | –
14 | C[C@H]1CC[C@H](Cn2cnc3nc(-c4noc(=O)[nH]4)nc(-c4cc(Cl)ccn4)c32)CC1 [Example 2.3, 3-{6-(4-chloropyridin-2-yl)-7-[(trans-4-methylcyclohexyl)methyl]-7H-purin-2-yl}-1,2,4-oxadiazol-5(4H)-one] | – | 251 | –
15 | C[C@@H](Nc1nc(C(=O)O)nc2ncn(CC3CCC4(CC3)CC4)c12)C1CCC1 [Example 3.4, 6-{[(1R)-1-cyclobutylethyl]amino}-7-(spiro[2.5]oct-6-ylmethyl)-7H-purine-2-carboxylic acid] | 2700 | – | –
16 | C[C@@H](Nc1nc(C(=O)O)nc2ncn(Cc3ccc(C(F)(F)F)cc3)c12)C1CC1 [Example 1.1, 6-{[(1R)-1-cyclopropylethyl]amino}-7-[4-(trifluoromethyl)benzyl]-7H-purine-2-carboxylic acid] | – | – | IC50 (Table 1): 1140 nM
17 | C[C@H]1CC[C@H](Cn2cnc3nc(-c4noc(=O)[nH]4)nc(-c4cccc(C#N)c4)c32)CC1 [Example 2.9, 3-{7-[(trans-4-methylcyclohexyl)methyl]-2-(5-oxo-4,5-dihydro-1,2,4-oxadiazol-3-yl)-7H-purin-6-yl}benzonitrile] | – | 518 | –
18 | Cc1ncc(Cl)cc1-c1nc(-c2noc(=O)[nH]2)nc2ncn(C[C@H]3CC[C@H](C)CC3)c12 [Example 2.21, 3-{6-(5-chloro-2-methylpyridin-3-yl)-7-[(trans-4-methylcyclohexyl)methyl]-7H-purin-2-yl}-1,2,4-oxadiazol-5(4H)-one] | – | 87.8 | –
19 | C[C@@H](Nc1nc(C(=O)O)nc2ncn(Cc3cc4ccccc4s3)c12)C1CC1 [Example 1.8, 7-(1-benzothiophen-2-ylmethyl)-6-{[(1R)-1-cyclopropylethyl]amino}-7H-purine-2-carboxylic acid] | – | – | IC50 (Table 1): 2420 nM
20 | C[C@@H](Nc1nc(C(=O)O)nc2ncn(Cc3ccc(C(F)(F)F)cc3)c12)C1CCC1 [Example 1.13, 6-{[(1R)-1-cyclobutylethyl]amino}-7-[4-(trifluoromethyl)benzyl]-7H-purine-2-carboxylic acid] | – | – | IC50 (Table 1): 81.6 nM
21 | C[C@@H](Nc1nc(-c2noc(=O)[nH]2)nc2ncn(C[C@H]3CC[C@H](C(F)(F)F)CC3)c12)C1CCC1 [Example 3.1, 3-(6-{[(1R)-1-cyclobutylethyl]amino}-7-{[trans-4-(trifluoromethyl)cyclohexyl]methyl}-7H-purin-2-yl)-1,2,4-oxadiazol-5(4H)-one] | 116 | – | –
22 | CCC1CCC(Cn2cnc3nc(C(=O)O)nc(N[C@H](C)C4CCC4)c32)C1 (single isomer, unassigned) [Example 3.13] | 510 | – | –
23 | C[C@@H](Nc1nc(C(=O)NS(=O)(=O)N(C)C)nc2ncn(C[C@H]3CC[C@H](C)CC3)c12)C1CCC1 [Example 1.4, 6-{[(1R)-1-cyclobutylethyl]amino}-N-(dimethylsulfamoyl)-7-[(trans-4-methylcyclohexyl)methyl]-7H-purine-2-carboxamide] | – | – | IC50 (Table 1): 733 nM
24 | COCCOc1cc(Cl)cc(-c2nc(-c3noc(=O)[nH]3)nc3ncn(C[C@H]4CC[C@H](C)CC4)c23)c1 [Example 2.22, 3-{6-[3-chloro-5-(2-methoxyethoxyl)phenyl]-7-[(trans-4-methylcyclohexyl)methyl]-7H-purin-2-yl}-1,2,4-oxadiazol-5(4H)-one] | – | 68.5 | –
25 | COC(=O)c1cc(C)cc(-c2nc(-c3noc(=O)[nH]3)nc3ncn(C[C@H]4CC[C@H](C)CC4)c23)c1 [Example 2.19, methyl 3-methyl-5-{7-[(trans-4-methylcyclohexyl)methyl]-2-(5-oxo-4,5-dihydro-1,2,4-oxadiazol-3-yl)-7H-purin-6-yl}benzoate] | – | 579 | –
26 | C[C@H]1CC[C@H](Cn2cnc3nc(-c4noc(=O)[nH]4)nc(-c4cc(Cl)ccc4O)c32)CC1 [Example 2.5, 3-{6-(5-chloro-2-hydroxyphenyl)-7-[(trans-4-methylcyclohexyl)methyl]-7H-purin-2-yl}-1,2,4-oxadiazol-5(4H)-one] | – | 842 | –
27 | CC1(C)CCCN(c2nc(-c3noc(=O)[nH]3)nc3ncn(C[C@H]4CC[C@H](C)CC4)c23)C1 [Example 1.12, 3-{6-(3,3-dimethylpiperidin-1-yl)-7-[(trans-4-methylcyclohexyl)methyl]-7H-purin-2-yl}-1,2,4-oxadiazol-5(4H)-one] | – | – | inhibition at 1 µM: 43%
28 | C=C1CCC(Cn2cnc3nc(C(=O)O)nc(N[C@H](C)C4CCC4)c32)CC1 [Example 3.8, 6-{[(1R)-1-cyclobutylethyl]amino}-7-[(4-methylidenecyclohexyl)methyl]-7H-purine-2-carboxylic acid] | 677 | – | –
